GI50 and TGI data for twelve compounds are collected here from PubChem BioAssay (NCI).

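Exposure lasted 48 hours, with cells grown in 96-well plates and compounds tested at five concentrations. At the GI50, growth is halved. Definition used: TGI = concentration required for complete inhibition of growth.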 A value given as a limit tells only on which side of the number the result lay.

Test systems include SK-OV-3 ovarian; MALME-3M melanoma; TK-10 renal; MOLT-4 leukemia; OVCAR-4 ovarian; NCI-H522 lung; NCI-H226 lung; CAKI-1 renal; UACC-257 melanoma.
What all share (experiment): NCI-60 cell line screen, 48 h

On to `Cn1c2ccccc2c2c3[nH][nH]c(=O)c3c3c4ccccc4[nH]c3c21`, for which the GI50 was 3.46 µM in the assay with SK-OV-3 ovarian; 5.24 µM in the assay on MALME-3M melanoma; 4.74 µM in the assay on TK-10 renal; 1.89 µM with MOLT-4 leukemia; 2.6 µM in the assay on OVCAR-4 ovarian; 1.56 µM in the assay on NCI-H522 lung. The GI50 was 2.34 µM in the assay on NCI-H226 lung and 2.22 µM with CAKI-1 renal. In addition, the TGI worked out at 64.8 µM in the assay on SK-OV-3 ovarian; 29.6 µM in the assay on MALME-3M melanoma; 57.2 µM with TK-10 renal; 5.55 µM in the assay on MOLT-4 leukemia; 13.2 µM with OVCAR-4 ovarian; 10.4 µM in the assay with NCI-H522 lung. The TGI was 22.6 µM in the assay on NCI-H226 lung and greater than 100 µM with CAKI-1 renal.
As for `O=C1Nc2ccccc2/C1=C\c1nc(C2CCN(S(=O)(=O)c3ccc(F)cc3)CC2)n2ccccc12`, the GI50 with SK-OV-3 ovarian was 4.96 µM; with TK-10 renal, 2.41 µM; with MOLT-4 leukemia, greater than 100 µM; in the assay on NCI-H522 lung, 1.94 µM; in the assay on NCI-H226 lung it was 2.32 µM; with CAKI-1 renal, 1.73 µM. For the same compound, the TGI with SK-OV-3 ovarian was greater than 100 µM; with TK-10 renal, 8.62 µM; with MOLT-4 leukemia, greater than 100 µM; in the assay on NCI-H522 lung, 12 µM; in the assay with NCI-H226 lung it was 21.1 µM; in the assay with CAKI-1 renal it was greater than 100 µM.
Regarding `CN1CCN(c2nc(NCCCNc3ccnc4cc(Cl)ccc34)c3ccccc3n2)CC1`, the GI50 in the assay on SK-OV-3 ovarian is 6.46 µM; in the assay with MALME-3M melanoma it was 1.98 µM; with UACC-257 melanoma it was 2.02 µM; in the assay on TK-10 renal, 10.8 µM; in the assay on MOLT-4 leukemia, 3.25 µM; with OVCAR-4 ovarian it was 2.69 µM. Further, the GI50 in the assay with NCI-H522 lung is 3.24 µM; in the assay with NCI-H226 lung it was 18.9 µM. Besides, the TGI in the assay with SK-OV-3 ovarian amounted to 22.5 µM; in the assay on MALME-3M melanoma, 3.84 µM; with UACC-257 melanoma, 3.83 µM; in the assay on TK-10 renal, 26.2 µM; in the assay on MOLT-4 leukemia, 15.2 µM; in the assay with OVCAR-4 ovarian, 12.5 µM. Besides, the TGI in the assay on NCI-H522 lung was 7.7 µM; with NCI-H226 lung, 41.4 µM.
For the compound `C=C1C2CC(OC(C)=O)C3(C)C(c4ccoc4)OC(=O)[C@@H](O)[C@]13OC1C[C@H](OC(C)=O)C(C)(C)[C@H](CC(=O)OC)[C@]12C` (stereo partly specified), the TGI in the assay on SK-OV-3 ovarian, with TK-10 renal, with MOLT-4 leukemia, with OVCAR-4 ovarian and with NCI-H226 lung was greater than 100 µM throughout.
In the case of `Oc1ccc(CCNCc2cc3c(cc2Br)OCO3)cc1`, the TGI with SK-OV-3 ovarian, with MALME-3M melanoma, in the assay on UACC-257 melanoma, with TK-10 renal, with MOLT-4 leukemia and in the assay on NCI-H522 lung was greater than 100 µM in each case. In addition, the TGI in the assay on NCI-H226 lung is greater than 100 µM.
`Cc1cc(N2CCCC2)nc(NCc2cc(Nc3ccnc4cc(Cl)ccc34)ccc2F)n1`: the GI50 in the assay with SK-OV-3 ovarian was 2.04 µM; with UACC-257 melanoma it was 1.31 µM; in the assay on TK-10 renal it was 2.14 µM; in the assay on NCI-H522 lung it was 1.41 µM; in the assay with CAKI-1 renal, 1.38 µM. The TGI in the assay on SK-OV-3 ovarian was 3.89 µM; with UACC-257 melanoma it was 2.66 µM; in the assay with TK-10 renal, 3.72 µM; in the assay with NCI-H522 lung, 3.09 µM; with CAKI-1 renal, 2.86 µM.
With `CCCCN(CCCC)CCC(O)c1cc2c(Cl)cc(Cl)cc2c2cc(C(F)(F)F)ccc12` (stereo unspecified), the TGI in the assay with SK-OV-3 ovarian worked out at 26.9 µM; with MALME-3M melanoma, 30 µM; in the assay on UACC-257 melanoma, 29.6 µM; in the assay on TK-10 renal, 27.6 µM; with MOLT-4 leukemia, 29.3 µM; in the assay on OVCAR-4 ovarian it was 28.5 µM. In addition, the TGI with NCI-H522 lung was determined as 32.9 µM; with CAKI-1 renal it was 29.3 µM.
Consider `CCCCNC(=O)c1cc(NCc2cc(O)ccc2O)ccc1O`, for which the GI50 with SK-OV-3 ovarian is 67.5 µM; in the assay on MALME-3M melanoma, 11.8 µM; in the assay with UACC-257 melanoma, 16.4 µM; with TK-10 renal, 22.6 µM; with MOLT-4 leukemia, 4.02 µM; in the assay with OVCAR-4 ovarian it was 12.3 µM. Also, the values for the GI50 with NCI-H522 lung and in the assay on CAKI-1 renal were 1.32 µM and 10.8 µM, respectively. Further, the TGI was greater than 100 µM with SK-OV-3 ovarian; 27.3 µM in the assay on MALME-3M melanoma; 32.4 µM with UACC-257 melanoma; 37.6 µM in the assay on TK-10 renal; 44.4 µM in the assay with MOLT-4 leukemia; 24.8 µM in the assay with OVCAR-4 ovarian. In addition, the TGI is 2.94 µM with NCI-H522 lung and 23.8 µM in the assay on CAKI-1 renal.
Turning to `CCCCc1n(Cc2ccc3ccccc3c2)cc[n+]1Cc1ccc2ccccc2c1`, the GI50 with SK-OV-3 ovarian is 1.38 µM; in the assay with MALME-3M melanoma, 1.18 µM; in the assay on UACC-257 melanoma it was 1.04 µM; with TK-10 renal it was 1.37 µM; in the assay on MOLT-4 leukemia, 1.39 µM. Further, the TGI with SK-OV-3 ovarian came to 2.75 µM; in the assay on MALME-3M melanoma, 2.64 µM; with UACC-257 melanoma, 2.32 µM; in the assay with TK-10 renal, 2.76 µM; with MOLT-4 leukemia, 3.4 µM.
In the case of `Cc1ccc(NC(=S)SCCC(=O)O)cc1`, the TGI with UACC-257 melanoma, with TK-10 renal, with MOLT-4 leukemia, in the assay on OVCAR-4 ovarian, in the assay on NCI-H522 lung and in the assay on NCI-H226 lung was greater than 100 µM in each case. Also, the TGI in the assay with CAKI-1 renal is greater than 100 µM.
For the compound `C[C@]1(Cn2ccnn2)C(C(=O)O)N2C(=O)CC2S1(=O)=O` (stereo partly specified), the GI50 in the assay on SK-OV-3 ovarian, in the assay on MALME-3M melanoma, in the assay with UACC-257 melanoma, in the assay with TK-10 renal, in the assay with OVCAR-4 ovarian and with NCI-H522 lung was greater than 100 µM in each case. Moreover, the GI50 in the assay on NCI-H226 lung and in the assay with CAKI-1 renal was greater than 100 µM throughout. Moreover, the TGI in the assay with SK-OV-3 ovarian, in the assay on MALME-3M melanoma, with UACC-257 melanoma, with TK-10 renal, in the assay with OVCAR-4 ovarian and in the assay on NCI-H522 lung was greater than 100 µM each time. Further, the TGI in the assay with NCI-H226 lung and in the assay with CAKI-1 renal was greater than 100 µM each time.
Consider `O=c1c(Br)cc2c(-c3ccccc3)c3cc(Br)c(O)c(Br)c3oc-2c1Br`, for which the TGI is greater than 100 µM in the assay on SK-OV-3 ovarian; greater than 100 µM with MALME-3M melanoma; greater than 100 µM in the assay with UACC-257 melanoma; greater than 100 µM in the assay with TK-10 renal; greater than 100 µM in the assay on MOLT-4 leukemia; 63.7 µM in the assay on OVCAR-4 ovarian. Besides, the TGI in the assay with NCI-H226 lung and with CAKI-1 renal was greater than 100 µM each time.
